Test results taken from US20190209572A1, “BIFUNCTIONAL ANTIFUNGAL AGENTS AND METHODS OF TREATING FUNGAL INFECTION” (YALE UNIVERSITY, priority 2016, published 2019).

Tests used:
Candida albicans = test: Flow cytometry antibody-recruiting assay (anti-DNP antibodies) on C. albicans; type: cell-based
Method: Candida albicans cultures were maintained on Sabouraud dextrose agar (SDA) and yeast cell cultures were grown at 30° C. in Sabouraud dextrose broth with shaking at 225 rpm overnight (OD 1.1-1.3). For the assays, 10^5 cells were taken into 50 μL assay medium (5% BSA in PBS 1x) and treated with a fixed concentration of the indicated ARM-F compound from 100x DMSO stocks followed by imminent addition of 50 μL 500x stock solution of anti-DNP-biotine-xx conjugate antibodies in assay medium. Cells were allowed to incubate for 30 min at r.t., then washed twice with 500 μL assay medium followed by addition of 50 μL 500x stock solution of streptavidin-AlexaFluor 647 conjugate and propidium iodide. […] The cells were allowed to incubate for another 30 min, washed with 500 μL assay medium and antibody recruiting to the cell surface was evaluated via flow cytometry by measuring increasing cell counts in the FL-4 channel negative for FL-3.
A flow-cytometry based assay was developed to assess the antibody recruitment ability of candidate ARM-Fs to isolates of C. albicans. We chose this organism for our studies because it is both a known human pathogen, and readily tractable for experimental manipulations.^[13] Ternary complexes formed from ARM-F, fungal cells and anti-DNP antibodies were detected using an anti-DNP secondary antibody conjugated to Alexa Fluor 647 fluorophore. […]

[1] = test system: caspofungin-treated C. albicans cells; test: Flow cytometry antibody-recruiting assay on C. albicans grown with caspofungin; type: cell-based, Candida albicans
Method: The synergistic experiments with Caspofungin were performed as described above, Save that yeast cell cultures were grown in Sabouraud dextrose broth supplemented with a fixed concentration of Caspofungin acetate from DMSO stock solutions.
Cultures of C. albicans Ca2323 were grown in Sabourad dextrose broth (Hardy Diagnostics, CA) to maintain them in a non-sporulating yeast form (blastopore form). S. cerevisiae YPH499 (Mat type a) were grown in YPD brath (Teknova, CA). Chitin-deficient strain S. cerevisiae YMS348s Δchs 1,2,3 was grown in YPD broth supplemented with 1M sorbitol. The fungal cultures were generally grown overnight at 30° C. for the antibody recruitment and phagocytosis assays. For consistency, O.D. measurements were taken using a single cuvette UltraSpec 10 cell density meter and experiments were performed on cultures with similar density. For experiments involving caspofungin treated C. albicans, the cells were grown overnight in media containing 1.25 ng/ml caspofungin acetate (Merck, PA). For experiments involving α factor induced arrest, α factor pheromone trifluoroacetate salt (Bachem, Switzerland) was added to a fresh S. cerevisiae YPH499 culture to a final concentration of 5 μg/mL followed by incubation for 1 h. Then, the cells were treated repeatedly with α factor pheromone trifluoroacetate salt (5 μg/mL) and incubated for an additional 2 h.
Fungal cells for the antibody recruitment experiments were always grown to 1.0 O.D. for consistency across experiments. The fungal cells were pelleted, washed, counted on the flow cytometer and re-constituted in FACS buffer of PBS containing 5% BSA at a density of 1×10^5 cells/mL. One microliter of suitably diluted ARM compound followed by 1 μL of 1:100 diluted anti-DNP biotinylated mouse monoclonal antibody (2 mg/mL, Invitrogen, CA) was added to 100 μL of fungal cells in FACS buffer. The reaction was mixed well and incubated in a 37° C. incubator for 30 minutes. Post incubation, washing was performed by adding 1 mL of FACS buffer to the reaction and the cells pelleted by centrifugation at 10000x g for 5 minutes. The pelleted cells were then reconstituted in 100 μl of FACS buffer followed by addition of 1 μL of 1:1000 diluted AF647 labeled streptavidin (0.5 mg/mL, BioLegend, CA) and 1 μL of 100 μg/ml propidium iodide (PromoKine, Germany). […] All experiments consisted of two sets of controls: (i) flow controls: unstained cells, propidium iodide stained cells, secondary reagent stained cells; (ii) background controls: compound 9 lacking DNP motifs, and no ARM-F. The cells were analyzed by flow cytometry on an Attune Nxt flow cytometer (Thermo Fischer Scientific) and the raw data further analyzed using FlowJo software (FlowJo LLC, OR).

C. albicans = test: Dual color flow cytometry-based fungal opsono-phagocytosis assay; type: cell-based, Candida albicans
Text: In the physiological state, neutrophils mediate immune clearance of antibody-opsonized fungal cells.^[18], [19] To mimic this mechanism, we developed a functional assay to analyse ARM-F mediated opsonophagocytosis of fungal cells. The assay is based on two color flow cytometry and operates on the principle of differentiating phagocytosed fungal cells (intracellular) from non-phagocytosed cells (extracellular).^[20] […]
The pro-myeloblast cell line HL-60 was obtained from AtCC and cultured in high serum DMEM-F12 growth medium containing 15% FBS, 1 mM sodium pyruvate, 2 mM L-glutamine, 1X non-essential amino acids with antibiotics penicillin (10 U/mL) and streptomycin (10 μg/mL). […] The cells were counted every 24-48 hours on a Roche Innovatis Cedex XS automated cell counter and generally maintained at a density of 1×10^5 cells/mL. […]
Fungal cells for these experiments were always grown to 1.0 OD and the HL-60 cells to approximately 1×10^5 cells/mL for consistency between experiments. The fungal cells were counted by flow cytometry, pelleted and reconstituted in a fixing solution of ice-cold 70% ethanol and incubated for 1 h. […] After the final wash, the fungal cells were counted again on the flow cytometer and re-constituted in FACS buffer of PBS containing 5% BSA at a density of 2×10^6 cells/mL. […]

[2] = ELISA assay for antibody recruitment on immobilized chitin; type: binding; details: FIG. 9A
Method: Free chitin (0.100 g, Alfa Aesar, United Kingdom) was hydrolyzed by adding 10 ml of conc. HCl for 30 min with gentle stirring. An aliquot of the chilin solution(1 mL) was mixed with 9 ml of PBS to the final concentration of 1 mg/mL. This solution was further diluted to 100 μg/mL with PBS and coated overnight at 4° C. in a 96-well Nunc MaxiSorp microtiter plate. Upon completion, the coated plate was blocked with 2% BSA solution at 37° C. for 3 h. Next, compounds and controls at predetermined dilutions made in the 2% BSA blocking solution were added followed by addition of 2 mg/ml anti-DNP biotinylated antibodies diluted 1:100 (Invitrogen, CA). The plate was covered and incubated at 37° C. for 1 h. The plate was washed 3 times with wash solution (0.2% Tween 20 in PBS) and HRP-labeled streptavidin secondary reagent was added at a dilution 1:10000 in 2% BSA. The plate was incubated again at 37° C. for 1 h followed by washing 3 times with wash solution. HRP substrate TMB Ultra solution (Thermo Fischer, IL) was added to the plates and incubated until suitable color development and the reaction was stopped by adding 100 μL of aq. 1N H2SO4. Quantification was performed by measuring absorbance on a plate reader at 450 nm.

SMILES	viability of fungal cells during antibody recruitment (Candida albicans; dose-dependent recruitment, FIG. 8B)	C. albicans cells exhibiting AF647 fluorescence (Candida albicans; no caspofungin, FIG. 8A)	fungal cells that recruited antibodies and were alive ([1]; 1 μM of 8, 1.25 ng/ml caspofungin, FIG. 9C) [%]	dose eliciting antibody recruitment comparable to the maximum possible in the non-caspofungin model ([1]; caspofungin treated C. albicans, FIG. 9D) [nM]	concentration eliciting maximum response in caspofungin treated cells ([1]; dose ranging, caspofungin treated C. albicans, FIG. 9D) [µM]	concentration of maximal phagocytosis response (C. albicans; bell-shaped curve, FIG. 10C) [µM]	phagocytosis of C. albicans cells (in words) (C. albicans; human neutrophils, anti-DNP antibodies, compared to untreated cells)	binding to chitin (in words) [2]	viability of C. albicans at caspofungin concentrations higher than 1.25 ng/ml ([1]; FIG. 9C)
O=C(NCCOCCOCCOCCOCCOCCOCCOCCOCCOCCNc1ccc([N+](=O)[O-])cc1[N+](=O)[O-])c1ccc(Nc2nc(Nc3ccc(/C=C/c4ccc(Nc5nc(Nc6ccc(C(=O)NCCOCCOCCOCCOCCOCCOCCOCCOCCOCCNc7ccc([N+](=O)[O-])cc7[N+](=O)[O-])cc6)nc(N(CCO)CCO)n5)cc4S(=O)(=O)O)c(S(=O)(=O)O)c3)nc(N(CCO)CCO)n2)cc1 [compound 8]	no loss of viability	35-45%	90	10	1	10	drastic increase in number of phagocytosed fungal cells	binds to fungal chitin in a dose-dependent manner	
CC[C@H](C)C[C@H](C)CCCCCCCCC(=O)N[C@H]1C[C@@H](O)[C@@H](NCCN)NC(=O)[C@@H]2[C@@H](O)CCN2C(=O)[C@H]([C@H](O)CCN)NC(=O)[C@H]([C@H](O)[C@@H](O)c2ccc(O)cc2)NC(=O)[C@@H]2C[C@@H](O)CN2C(=O)[C@H]([C@@H](C)O)NC1=O [Caspofungin, reference compound]									reduced viability
